By AC50 is commonly meant the midpoint of the concentration-response curve, whichever way the signal moves. As usually defined, the CC50 is the concentration giving 50% cytotoxicity. As usually defined, the Ki is a measure of affinity in units of concentration, obtained from inhibition or displacement.

The structures appear in SMILES notation. Active and inactive are the calls of the source.

Eight compounds from ChEMBL document CHEMBL1201862, “PubChem BioAssay data set” (2004) can be followed below.

The target in one assay is Paired box protein Pax-8 (Homo sapiens, UniProt Q06710). Nature of the assay: inhibitors of PAX8-driven TPO luciferase reporter, dose response, RMG-I cells, cherry-pick (AID 687027).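 Further: luciferase reporter driven by Pax8 target thyroperoxidase promoter measured by SteadyGlo luminescence.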 The class given is functional, cell-based. On the technique in general: A reporter such as luciferase makes a cellular process visible.
Chain of Paired box protein Pax-8 (Q06710 whole entry): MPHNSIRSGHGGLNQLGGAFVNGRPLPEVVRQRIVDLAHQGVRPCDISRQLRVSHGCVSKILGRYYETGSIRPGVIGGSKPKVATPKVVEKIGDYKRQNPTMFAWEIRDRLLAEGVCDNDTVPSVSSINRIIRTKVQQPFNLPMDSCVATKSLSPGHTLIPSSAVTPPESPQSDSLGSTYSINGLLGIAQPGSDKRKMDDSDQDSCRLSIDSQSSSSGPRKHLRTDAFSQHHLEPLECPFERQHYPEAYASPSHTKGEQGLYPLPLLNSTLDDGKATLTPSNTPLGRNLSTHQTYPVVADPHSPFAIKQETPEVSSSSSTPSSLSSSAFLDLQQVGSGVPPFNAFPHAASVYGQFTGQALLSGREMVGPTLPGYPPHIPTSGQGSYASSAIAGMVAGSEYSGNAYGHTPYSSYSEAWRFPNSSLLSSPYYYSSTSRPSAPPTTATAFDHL
The nature of assay [1]: IOSE-T80 ovarian epithelial cell cytotoxicity, dose response, cytotoxicity control for PAX8 inhibitor project, plate reader, dry powder samples (AID 743045). The class given is functional, cell-based.
Assay [2] is described as follows: A2780 ovarian cancer cell cytotoxicity, dose response, cytotoxicity control, plate reader, dry powder samples (AID 743046). The class given is functional, cell-based.
Assay [3] in a line: NIH:OVCAR-3 ovarian cancer cell cytotoxicity, dose response, PAX8 inhibitor project, plate reader, dry powder samples (AID 743044). The class given is functional, cell-based.
The nature of assay [4]: IGROV1 ovarian cancer cell cytotoxicity, dose response, PAX8 inhibitor project, plate reader, dry powder samples (AID 743043). The class given is functional, cell-based. The conditions noted are these: IGROV-1.
Assay [5] is described as follows: cytotoxicity in OVCAR8 ovarian cancer cells, dose response, PAX8 project, cell-based, plate reader, dry powder samples (AID 743197). The class given is functional. The conditions noted are these: OVCAR-8.
Assay [6] can be described thus: THP-1 cell cytotoxicity, dose response, cytotoxicity control for Vif-APOBEC3G degradation inhibitor project, THP-1 cells (AID 1117359). The class given is functional. The conditions noted are these: Human immunodeficiency virus 1, THP-1.
Assay [7] concerns Streptococcus sp. 'group A'. Briefly: growth inhibition of control SK(-) GAS strain, dose response, counter-screen for streptokinase expression inhibitor project, luminescence, kanamycin, BacTiterGlo, confirmation (AID 1900). The class given is functional, organism-based. For orientation: The purpose of a counterscreen is to sort out artefacts and off-target activity.
The next assay has as its target T1, Streptokinase A (Streptococcus pyogenes serotype M1, UniProt P10520).
T1 sequence (P10520 whole entry): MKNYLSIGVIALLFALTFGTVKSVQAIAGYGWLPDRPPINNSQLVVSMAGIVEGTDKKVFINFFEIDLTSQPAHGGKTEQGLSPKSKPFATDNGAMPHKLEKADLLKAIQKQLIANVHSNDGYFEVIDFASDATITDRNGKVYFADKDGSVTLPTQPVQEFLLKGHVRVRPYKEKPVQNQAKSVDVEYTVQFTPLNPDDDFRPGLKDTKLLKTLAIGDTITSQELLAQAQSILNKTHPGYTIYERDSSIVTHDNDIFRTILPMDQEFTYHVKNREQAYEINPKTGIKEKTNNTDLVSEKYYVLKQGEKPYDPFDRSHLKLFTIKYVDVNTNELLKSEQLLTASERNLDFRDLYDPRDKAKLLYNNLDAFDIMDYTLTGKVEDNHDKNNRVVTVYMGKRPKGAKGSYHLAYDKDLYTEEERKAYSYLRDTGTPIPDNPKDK
Nature of the assay: S. pyogenes streptokinase expression inhibitors, potency, dose response, plasminogen activation absorbance, OD405 (AID 1914).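 Further: secreted streptokinase activity via plasminogen activation per viability signal from cell pellet.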 The class given is functional, Streptococcus pyogenes M1 GAS.

The test system of a further assay is Streptococcus. Briefly: Group A Streptococcus viability loss, dose response, counter-screen for streptokinase expression inhibitor project, luminescence, BacTiterGlo (AID 1915).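 Further: potency for reduction of bacterial viability or growth.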 The class given is functional, organism-based.
The test system of a further assay is HEK293. Nature of the assay: inhibitors of LMP1-driven NF-kB reporter, dose response, cell-based, HEK293, luciferase, cherry-pick (AID 588343). The class given is functional. The conditions noted are these: Homo sapiens.
The subject of the next assay is INS1. Briefly: beta cell apoptosis inhibitors, cytokine rescue, dose response, luminescence, retest (AID 449756).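 Further: cell death triggered by IL-1 beta plus TNF-alpha plus IFN-gamma mixture; protective hits raise ATP signal compared with cytokine alone wells.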 The class given is functional, cell-based. The conditions noted are these: Rattus norvegicus.
Another assay addresses fMet-Leu-Phe receptor (Homo sapiens, UniProt P21462). Nature of the assay: FPR ligands, dose response (AID 519). The class given is functional.
Assay [8] is described as follows: P. falciparum 3D7-ScDHODH growth inhibitors, dose response, SYBR Green, dry powder samples (AID 1159570).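 Further: parasite growth measured after 72 hours of compound exposure.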 The class given is functional, cell-based.
Assay [9] can be described thus: HepG2 cell cytotoxicity, dose response, cytotoxicity control, plate reader, dry powder samples (AID 1159569).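 Further: inhibitor potency with signal falling toward the positive control level.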 The class given is functional, cell-based.
Assay [10] in a line: P. falciparum Dd2 growth inhibitors, dose response, SYBR Green, cherry-picked samples (AID 1159567). The class given is functional, cell-based.
Assay [11] is described as follows: P. falciparum Dd2 growth inhibitors, dose response, SYBR Green, dry powder samples (AID 1159566).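 Further: potency for growth inhibition with lower SYBR green DNA signal.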 The class given is functional, cell-based.
A short description of assay [12]: P. falciparum ATP4 D1247Y mutant growth inhibitors, dose response, NITD609-resistant line, SYBR Green, dry powder (AID 1159571).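 Further: parasites synchronized at ring stage by sorbitol before testing.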 The class given is functional, cell-based.
For assay [13], the target named is T2, Short transient receptor potential channel 4 (Mus musculus, UniProt Q9QUQ5).
T2 sequence (Q9QUQ5 whole entry): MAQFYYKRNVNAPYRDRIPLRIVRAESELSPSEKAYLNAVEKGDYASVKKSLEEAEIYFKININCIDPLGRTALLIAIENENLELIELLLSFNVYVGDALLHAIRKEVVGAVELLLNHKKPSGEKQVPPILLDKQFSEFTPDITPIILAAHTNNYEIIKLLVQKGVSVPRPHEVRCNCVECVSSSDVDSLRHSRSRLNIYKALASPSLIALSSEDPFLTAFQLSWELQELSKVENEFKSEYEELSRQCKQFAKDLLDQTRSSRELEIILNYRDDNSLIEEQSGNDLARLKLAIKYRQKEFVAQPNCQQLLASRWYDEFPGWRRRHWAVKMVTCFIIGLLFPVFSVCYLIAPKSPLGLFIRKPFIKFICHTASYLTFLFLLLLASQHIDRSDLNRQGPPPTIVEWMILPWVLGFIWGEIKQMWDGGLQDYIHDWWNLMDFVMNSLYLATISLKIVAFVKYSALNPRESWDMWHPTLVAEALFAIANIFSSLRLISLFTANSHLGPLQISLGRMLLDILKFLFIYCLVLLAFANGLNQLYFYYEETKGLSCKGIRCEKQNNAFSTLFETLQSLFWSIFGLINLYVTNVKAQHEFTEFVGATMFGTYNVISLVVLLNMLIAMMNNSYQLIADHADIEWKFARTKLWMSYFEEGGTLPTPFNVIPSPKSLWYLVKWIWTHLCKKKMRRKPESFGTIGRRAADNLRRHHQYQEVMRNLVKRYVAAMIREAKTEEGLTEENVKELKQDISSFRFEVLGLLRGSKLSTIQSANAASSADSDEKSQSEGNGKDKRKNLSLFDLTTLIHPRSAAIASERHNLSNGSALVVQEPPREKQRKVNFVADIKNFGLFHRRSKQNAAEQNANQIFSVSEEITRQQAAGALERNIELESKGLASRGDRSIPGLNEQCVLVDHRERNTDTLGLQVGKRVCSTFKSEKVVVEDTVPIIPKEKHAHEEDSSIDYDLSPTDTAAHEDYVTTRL
Nature of the assay: mouse TRPC4 channel inhibitors, dose response, cell-based, HEK293 TRPC4/mu-opioid, Fluo-4 calcium (AID 434942).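 Further: potency of inhibitors blocking the TRPC4 calcium response.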 The class given is functional.

Assay [14] is described as follows: Vero cell cytotoxicity, dose response, cytotoxicity control for Vif-APOBEC3G degradation inhibitor project, Vero cells (AID 1117358). The class given is functional. The conditions noted are these: Human immunodeficiency virus 1, Vero.
Assay [15] addresses T3, Corticotropin-releasing factor receptor 2/Corticotropin-releasing factor-binding protein (Homo sapiens, UniProt P24387+Q13324).
T3 sequence (Q13324 whole entry): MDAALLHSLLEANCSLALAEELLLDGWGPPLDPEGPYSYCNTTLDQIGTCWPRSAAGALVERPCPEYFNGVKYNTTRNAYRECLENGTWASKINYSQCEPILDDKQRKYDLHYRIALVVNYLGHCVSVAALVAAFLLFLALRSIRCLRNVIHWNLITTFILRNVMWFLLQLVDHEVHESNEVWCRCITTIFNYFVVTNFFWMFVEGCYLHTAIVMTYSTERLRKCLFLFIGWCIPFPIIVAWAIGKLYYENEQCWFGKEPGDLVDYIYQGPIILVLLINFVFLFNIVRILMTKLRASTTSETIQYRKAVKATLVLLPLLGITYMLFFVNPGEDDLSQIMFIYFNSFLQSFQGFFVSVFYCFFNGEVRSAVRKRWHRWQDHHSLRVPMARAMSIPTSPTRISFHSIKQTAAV
T3 sequence (P24387 whole entry): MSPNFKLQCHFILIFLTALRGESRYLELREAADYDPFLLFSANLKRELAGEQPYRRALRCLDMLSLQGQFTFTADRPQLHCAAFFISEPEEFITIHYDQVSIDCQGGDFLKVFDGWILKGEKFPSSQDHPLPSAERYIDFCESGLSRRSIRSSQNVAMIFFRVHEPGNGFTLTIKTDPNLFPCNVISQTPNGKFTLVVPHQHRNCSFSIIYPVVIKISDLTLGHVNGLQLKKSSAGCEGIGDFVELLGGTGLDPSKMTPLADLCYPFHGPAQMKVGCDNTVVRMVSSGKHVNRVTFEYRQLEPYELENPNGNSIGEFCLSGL
Briefly: Dose Response confirmation of uHTS hits for small molecule antagonists of the CRF-binding protein and CRF-R2 receptor complex. The class given is functional. The conditions noted are these: read-out: IC50_Mean.

In assay [16] the target is T3, Corticotropin-releasing factor receptor 2/Corticotropin-releasing factor-binding protein. Nature of the assay: activators of CRF receptor 2 with binding protein – uHTS hits, confirmation (AID 602473). Particulars: read-out: EC50_Mean. The class given is functional.
For assay [17], the target named is Disintegrin and metalloproteinase domain-containing protein 17 (Homo sapiens, UniProt P78536). Nature of the assay: exosite inhibitors of ADAM17, dose response, biochemical (AID 743260).
Chain of Disintegrin and metalloproteinase domain-containing protein 17 (P78536 whole entry, the tested form may be a part): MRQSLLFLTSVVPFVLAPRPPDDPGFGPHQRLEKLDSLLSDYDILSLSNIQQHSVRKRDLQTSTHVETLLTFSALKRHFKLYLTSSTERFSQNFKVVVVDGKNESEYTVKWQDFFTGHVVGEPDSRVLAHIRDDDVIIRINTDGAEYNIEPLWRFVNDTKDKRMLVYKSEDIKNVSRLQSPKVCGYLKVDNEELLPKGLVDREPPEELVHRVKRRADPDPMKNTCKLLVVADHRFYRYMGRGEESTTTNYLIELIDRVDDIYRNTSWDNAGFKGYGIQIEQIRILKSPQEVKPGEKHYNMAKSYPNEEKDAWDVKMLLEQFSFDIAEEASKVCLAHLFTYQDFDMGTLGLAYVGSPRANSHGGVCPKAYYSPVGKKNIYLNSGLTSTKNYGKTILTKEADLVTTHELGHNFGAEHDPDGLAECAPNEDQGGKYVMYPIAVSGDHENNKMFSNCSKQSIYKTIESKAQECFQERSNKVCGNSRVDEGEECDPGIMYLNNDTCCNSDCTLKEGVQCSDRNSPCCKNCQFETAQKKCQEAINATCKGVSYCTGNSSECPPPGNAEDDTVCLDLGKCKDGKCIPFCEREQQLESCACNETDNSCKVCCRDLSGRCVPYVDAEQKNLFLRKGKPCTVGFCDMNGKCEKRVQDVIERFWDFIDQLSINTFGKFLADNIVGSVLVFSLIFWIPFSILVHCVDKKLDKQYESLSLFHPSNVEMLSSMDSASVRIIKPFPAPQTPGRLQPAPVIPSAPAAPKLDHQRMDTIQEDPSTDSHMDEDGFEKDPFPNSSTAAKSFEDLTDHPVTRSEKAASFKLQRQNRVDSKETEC
A short description of assay [18]: ADAM10 protease inhibitors, dose response, selectivity assay for ADAM17 exosite inhibitor project, biochemical, FRET peptide substrate, recombinant human ADAM10 (AID 743259).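 Further: ADAM10 enzyme cleaving a FRET peptide substrate.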

Chain of fMet-Leu-Phe receptor (P21462 whole entry): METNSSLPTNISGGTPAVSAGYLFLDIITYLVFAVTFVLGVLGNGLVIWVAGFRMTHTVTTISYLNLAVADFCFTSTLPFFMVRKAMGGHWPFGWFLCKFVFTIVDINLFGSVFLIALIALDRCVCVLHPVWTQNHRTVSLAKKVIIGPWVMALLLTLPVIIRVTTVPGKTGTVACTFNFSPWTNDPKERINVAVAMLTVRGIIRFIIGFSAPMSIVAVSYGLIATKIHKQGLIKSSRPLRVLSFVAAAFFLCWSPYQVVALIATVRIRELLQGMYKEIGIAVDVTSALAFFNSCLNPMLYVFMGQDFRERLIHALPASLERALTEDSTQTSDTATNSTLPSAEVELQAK

For `C[C@@H]1CCCCO[C@@H](CN(C)Cc2ccc(Cl)c(Cl)c2)[C@H](C)CN([C@@H](C)CO)C(=O)c2cc(NC(=O)CCC(F)(F)F)ccc2O1`, the AC50 was 9.32 µM (active) at Paired box protein Pax-8; 23.4 µM (active) in assay [1]; 27.3 µM (active) in assay [2]; 16.1 µM (active) in [3]; 21.9 µM (active) in assay [4]; 17.1 µM (active) in assay [5].
`CCN(c1ccccc1)S(=O)(=O)c1ccc(C(=O)NNC(=O)c2ccccc2F)cc1`: in assay [6], the CC50 is 23.5 µM (active).
Regarding `Oc1c2c(nc3c(-c4ccc(Cl)cc4)cnn13)CCCC2`, the EC50 is 3.64 µM (active) in assay [7], > 150 µM (not active) at Streptokinase A and 9.5 µM (active) with Streptococcus. In addition, the values for the half-maximal activity concentration (AC50) in the assay with HEK293 and in the assay with INS1 were 2.89 µM (active) and 2.37 µM (active), respectively. For the same compound, the Ki on fMet-Leu-Phe receptor was > 66.7 µM (inactive).
Regarding `O=C(NC1CCCC1)C1CC1c1ccccc1` (stereo not given), the Ki at fMet-Leu-Phe receptor is > 66.7 µM (inactive).
Consider `CC(C)(C)[S@+]([O-])N1Cc2cc(C(=O)NCc3ccccc3F)nc(-c3cccc(-c4ccncc4)c3)c2[C@@H]1CCO`, for which the concentration at half-maximal activity (AC50) in [8] was 1.36 µM (active); in assay [9], 29.1 µM (active); in [10], 1.68 µM (active); in assay [11] it was 1.42 µM (active); in assay [12] it was 1.93 µM (active).
On to `COc1cc(CNCCc2ccc(F)cc2)ccc1OCc1ccc(Cl)nc1`, for which the EC50 in assay [13] was 1.88 µM (active). In addition, the CC50 in assay [14] was 26.1 µM (active).
For the compound `Cc1cc2oc(=O)cc(-c3ccccc3)c2c(C)c1-c1ccc(O)cc1`, the results for the IC50 in assay [15], in assay [17] and in assay [18] were > 47.1 µM (inactive), > 69.5 µM (inactive) and > 69.5 µM (inactive), respectively. In assay [16], the EC50 is > 53 µM (inactive).
As for `C[C@H]1CN([C@@H](C)CO)C(=O)c2ccccc2-c2ccccc2CO[C@H]1CN(C)Cc1ccc(-c2ccccc2)cc1`, the concentration at half-maximal activity (AC50) in assay [8] was 3.92 µM (active); in assay [9], 22.2 µM (active); in assay [10], 1.59 µM (active); in assay [11], 1.11 µM (active); in [12], 1.19 µM (active).
